Biological target: T1, human CXCR3 (N-delta 4) (Homo sapiens, UniProt P49682)
T1 construct: CD8 leader (N); Flag; expressed in transfected cells; membranes prepared
T1 sequence (P49682 5-368 limits assumed): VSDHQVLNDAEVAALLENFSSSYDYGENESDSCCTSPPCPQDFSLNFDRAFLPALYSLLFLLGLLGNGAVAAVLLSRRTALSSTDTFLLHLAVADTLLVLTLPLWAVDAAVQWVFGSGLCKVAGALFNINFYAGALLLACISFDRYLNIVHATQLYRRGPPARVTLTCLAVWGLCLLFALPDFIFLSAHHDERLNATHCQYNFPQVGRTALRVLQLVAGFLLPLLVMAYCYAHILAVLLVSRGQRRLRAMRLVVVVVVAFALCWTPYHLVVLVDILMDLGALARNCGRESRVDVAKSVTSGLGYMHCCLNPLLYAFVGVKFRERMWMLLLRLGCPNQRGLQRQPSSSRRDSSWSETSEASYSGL
Assay: Human CXCR3 (N-delta 4) Scintillation Proximity Assay (SPA), [125I] IP-10 binding to Ba/F3-hCXCR3 membranes
Conditions: IC50 rating, Table 1; read-out: IC50

IC50, < 25 nM:
CC[C@H]1CN(c2nc(N)c(C(=O)NCCO)nc2C)[C@H](C)CN1C1CCN(C(=O)c2ccc(Cl)cc2)CC1 [compound 482], CC[C@H]1CN(c2ncc(C(=O)NC3CC3)nc2C)CCN1C1CCN(C(=O)c2ccc(C(F)(F)F)cc2)CC1 [compound 483], CCNC(=O)c1cnc(N2CCN(C3CCN(C(=O)c4ccc(Cl)cc4)CC3)[C@@H](CC)C2)c(C(F)(F)F)n1 [compound 484], CC[C@H]1CN(c2ncc(C(=O)NC3CC3)nc2C)CCN1C1CCN([C@@H](C(=O)OC)c2ccc(Cl)cc2)CC1 [compound 485], CC[C@H]1CN(c2ncc(C(=O)NC3CC3)nc2C)CCN1C1CCN([C@@H](C(=O)OC)c2ccc(F)c(F)c2)CC1 [compound 486], CCc1ccc(C(=O)N2CCC(N3CCN(c4ncc(C(=O)NC5CC5)nc4C(F)(F)F)C[C@@H]3CC)CC2)cc1 [compound 487], CC[C@H]1CN(c2ncc(C(=O)NCCO)nc2C)[C@H](C)CN1C1CCN(Cc2ccc(OC(F)(F)F)cc2)CC1 [compound 488], CC[C@H]1CN(c2ncc(C(=O)NC3CC3)nc2C(F)(F)F)CCN1C1CCN(C(=O)c2ccc(Cl)cc2)CC1 [compound 489], CC[C@H]1CN(c2ncc(C(=O)NC3CC3)nc2C(F)(F)F)CCN1C1CCN(C(=O)c2ccc(F)c(F)c2)CC1 [compound 490], CC[C@H]1CN(c2ncc(C(=O)NC3CC3)nc2C)CCN1C1CCN(Cc2ccc(Cl)c(OCCS(C)(=O)=O)c2)CC1 [compound 492]
